Data published in PubChem BioAssay (NCI).
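In this assay, cells in 96-well plates receive the compound at five concentrations for 48 hours. Endpoints are linearly interpolated between the surrounding concentrations. GI50 = concentration required for 50% inhibition of growth. At the TGI there is no net growth.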

What was measured:
Assay in all cases: inhibition of tumour cell growth, NCI panel, 48 h
[1] = system: MCF7 breast
[2] = system: HOP-92 NSCLC
[3] = system: ACHN renal
[4] = system: HCT-15 colon
[5] = system: UACC-257 melanoma
[6] = system: A549 NSCLC
[7] = system: UO-31 renal
[8] = system: CCRF-CEM leukemia
[9] = system: SF-295 CNS
[10] = system: MDA-MB-435

Row | SMILES | GI50 [1] | TGI [1] | GI50 [2] | TGI [2] | GI50 [3] | TGI [3] | GI50 [4] | TGI [4] | GI50 [5] | TGI [5] | TGI [6] | TGI [7] | TGI [8] | TGI [9] | TGI [10] | GI50 [6] | GI50 [7] | GI50 [8] | GI50 [9] | GI50 [10]
1 | CC(CNc1nc(Nc2ccc(Cl)c(Cl)c2)nc(C(Cl)(Cl)Cl)n1)N(C)C (configuration not stated) | 1.7 µM | 3.16 µM | 1.35 µM | 4.16 µM | 1.56 µM | 2.94 µM | 1.68 µM | 3.15 µM | 1.75 µM | 3.32 µM |  |  |  |  |  |  |  |  |  | 
2 | C/C=C1/C(=O)O[C@]23C=C[C@@H]4C(C(=O)OC)=CO[C@H](O[C@@H]12)[C@@H]43 |  | 3.76 µM |  | 3.74 µM |  |  |  | 4.66 µM |  | 2.31 µM | 11.1 µM | 6.98 µM | 3.56 µM | 5.24 µM |  |  |  |  |  | 
3 | Cc1ccc(C(=O)N/N=C(\N=Nc2ccccc2)c2ccc(N(CCC#N)CCC#N)cc2C)cc1 |  | > 100 µM |  | > 100 µM |  | > 100 µM |  | > 100 µM |  | > 100 µM | > 100 µM | > 100 µM | > 100 µM | > 100 µM | > 100 µM |  |  |  |  | 
4 | O=C1NC(=O)C2(CCc3ccc(N(CCCl)CCCl)cc32)N1 (configuration not stated) |  | 61.4 µM |  | 39.7 µM |  |  |  | 49 µM |  | 45.2 µM | > 65 µM | 48 µM | > 79.7 µM | > 61.5 µM |  |  |  |  |  | 
5 | CC(=O)Nc1nc(C)c(-c2cc3c(c(S(C)(=O)=O)c2)C(=O)N([C@@H](C)C2CC2)C3)s1 | 23.7 µM | > 100 µM | 15.9 µM | 64.1 µM | 28.3 µM | > 100 µM | 28.2 µM | > 100 µM | 37.7 µM | > 100 µM | > 100 µM | > 100 µM | > 100 µM | > 100 µM | > 100 µM | 28 µM | 24.8 µM | 1.18 µM | 31.6 µM | 52.4 µM
6 | COc1ccc(/C=C/C(=O)/C=C(/C=C/c2ccc(OC)c(OC)c2OC)OB(F)F)c(OC)c1OC | 0.502 µM | > 100 µM | 7.46 µM | > 100 µM |  |  |  |  | 9.33 µM | > 100 µM | > 100 µM | 3.65 µM | 2.08 µM |  | > 100 µM | 3.44 µM | 0.96 µM | 0.366 µM |  | 2.15 µM
7 | COc1ccc(-c2c(C#N)cnc(N)c2-c2nc3cc(C)c(C)cc3[nH]2)cc1 | 6.34 µM | > 100 µM | 2.65 µM | 16.3 µM | 39.8 µM | > 100 µM | 5.81 µM | > 100 µM | 52 µM | > 100 µM | 72.4 µM |  | > 100 µM | 23.4 µM | 5.39 µM | 6.54 µM |  | 25.6 µM | 6.41 µM | 1.95 µM
8 | CC1CC(c2ccc([N+](=O)[O-])cc2)=Nc2ccccc2S1=O (configuration not stated) |  |  |  | > 100 µM |  | 40.6 µM |  | 28.1 µM |  | 42.1 µM | 41.4 µM | 26.3 µM | 42.2 µM | 55.2 µM |  |  |  |  |  | 
9 | CC(=O)O[C@@H]1CN(S(=O)(=O)c2ccc(C)cc2)C[C@@H]1C1CCCCC1 |  | 42.1 µM |  | 33.8 µM |  | > 100 µM |  | > 100 µM |  | 35.7 µM |  | > 100 µM | > 100 µM | > 100 µM | 44.6 µM |  |  |  |  | 
10 | COc1ccc2oc3c(ccc[n+]3C)c(=O)c2c1 |  | > 100 µM |  | > 100 µM |  | > 100 µM |  | > 100 µM |  |  | > 100 µM | > 100 µM | > 100 µM | > 100 µM | > 100 µM |  |  |  |  | 
11 | COc1cc2c(cc1O)N=C[C@@H]1CCC(O)N1C2=O (mixture of isomers) |  | 37 µM |  | 2.46 µM |  |  |  | 6.44 µM |  | 7.65 µM | 71.6 µM | 2.79 µM | 1.66 µM | 5.77 µM |  |  |  |  |  | 
12 | CCc1ncc(C(C)(O)c2ccccc2)n1Cc1ccccc1 (configuration not stated) |  | > 100 µM |  | > 100 µM |  | > 100 µM |  | > 100 µM |  | > 100 µM | > 100 µM | > 100 µM | > 100 µM | > 100 µM | 48.1 µM |  |  |  |  | 
